Data from patent US20200246465A1, “USE OF TRYPTOPHAN DERIVATIVES FOR PROTEIN FORMULATIONS” (Genentech, Inc., priority 2015, published 2020).

How the values were obtained:
[1] = AAPH stress of proteins with or without NAT, site-specific Trp oxidation by LC-MS tryptic peptide mapping; type: physicochemical; details: Mab2 W53 and W106, Mab4 W52, Mab1 W103, Mab6 W103/104; 1 mM AAPH; NAT 0.05-1 mM
Protocol: Proteins Mab1, Mab2, and Mab3/Mab4 were dialyzed into a sodium acetate buffer (20 mM sodium acetate pH 5.5) and Mab5/Mab6 was dialyzed into a histidine-based buffer (20 mM histidine hydrochloride pH 5.5). Protein solutions were diluted to a final concentration of 1 mg/mL protein in the corresponding buffer and 1 mM 2,2′-Azobis(2-amidinopropane) dihydrochloride (AAPH) was added. N-acetyl-Trp (NAT) was added from a concentrated stock solution to each protein solution at concentrations from 0 to 5 mM. Samples were incubated at 40° C. for 16 hours followed by quenching with methionine and buffer exchange to the initial dialysis buffer plus 100 mM sucrose.
Site-specific modifications of AAPH-stressed samples of Mab2, Mab1, and Mab3/Mab4 were monitored using a microscale tryptic peptide digest followed by liquid chromatography-mass spectrometry (LC-MS) (Anderson, N. et al., Nov. 20, 2014, American Pharmaceutical Review). […]
Peptide mapping of each digested sample was performed on a Waters Acquity H-Class UHPLC coupled to a Thermo Q Exactive Plus high resolution mass spectrometry system (HRMS). […] Column effluent was monitored at 214 nm. […] The oxidation level at each site was determined by extracted ion chromatography (EIC) using the Thermo XCalibur biopharmaceutical characterization software. […]

[2] = Real time stability of NAT in drug product formulations; type: physicochemical
Protocol: NAT and NAT degradants were separated on an Agilent 1200 series HPLC or Waters H Class UPLC using an Agilent ZORBAX SB-C18 3.5 μm, 4.6×75 mm reverse phase column. Column temperature was held at 30±0.8° C. by a thermostat controller. The gradients used for HPLC and UPLC are listed in Tables 5 and 6, respectively (note: the shorter gradient on the UPLC was designed to accommodate earlier retention times and the column re-equilibration period was elongated due to the larger range of system pressure at a flow rate of 1.0 ml/min). NAT degradation products were detected at 240 nm. The standard bandwidth setting (8 nm for Agilent 1200 HPLC, 4.8 nm for Waters H-Class) was used for analysis on each instrument. The autosampler was maintained at 5±3° C. 10 nmol of NAT and/or NAT degradants (50 μl for most samples) was injected on to the column for analysis. The chromatograms were processed using Dionex Chromeleon software. Protein-containing samples were diluted in guanidine and the proteins removed via ultra-filtration (Amicon spin filters with a 30 kDa molecular weight cut-off). […] Using the final sample preparation conditions, recovery of NAT was 94-99% for three tested antibody/antibody derivatives and recovery of NAT degradants was 98-100% (data not shown). With this model experience in hand, the amount of NAT oxidation expected to occur in the manufacturing and storage of mAbs was explored next. FIG. 12 illustrates the comparison of the AAPH model stress system with an antibody at 150 mg/ml (1.0 mM) co-formulated with NAT, Met, and other excipients typical of mAb formulations. Results are shown for the initial time point, at −20° C. and 5° C. for six months (representative of typical storage conditions), and 25° C. for 6 months (representative of accelerated stability conditions). Oxidation levels were negligible directly after manufacturing and under the typical storage conditions tested.

loss of NAT ([2]; 3 months at 25° C., corresponding vehicle (formulation without protein)): 1% | NAT loss ([2]; 3 months at 25° C., protein containing sample (antibody 150 mg/ml, NAT, Met, excipients)): 7.5% | NAT oxidation levels ([2]; directly after manufacturing and at −20° C. and 5° C. for six months, antibody 150 mg/ml co-formulated with NAT, Met): negligible | total NAT loss ([2]; six months at 25° C., antibody at 150 mg/ml (1.0 mM) co-formulated with NAT, Met and other excipients): 16.8% | NAT degradation ([2]; vehicle (formulation without protein) at higher temperatures): minimal NAT degradation
Compound: CC(=O)N[C@@H](Cc1c[nH]c2ccccc12)C(=O)O [NAT, N-acetyl-tryptophan]
NAT protection from AAPH-induced oxidation of oxidation-prone tryptophan residues [1]: able to protect each tested residue from oxidation
